Usually half-life stands for the time needed for the level to fall by half in the phase considered. The low end stands for rapid decline, the high end for slow decline. For orientation: AUC(0-inf) means the area under the concentration-time curve extrapolated to infinity. Broadly, the Cmax is the highest concentration seen after dosing. One may read the Vd/F as the volume of distribution divided by bioavailability. In general, Tmax refers to the time at which the peak concentration occurs. In general, Ki refers to a dissociation constant, usually derived from enzyme kinetics or from competition with a known ligand. By IC50 is commonly meant the point on the concentration scale where inhibition reaches its midpoint. The low end stands for greater potency, the high end for weaker potency. Broadly, the AUC(0-t) is exposure summed from dosing to a finite time, without extrapolation to infinity.

The structures appear in SMILES notation. “Also recorded” adds a separate entry of the source.

The test system of data set [1] is MDCK-MDR1 cells. On the set-up: method as in data on file, Eli Lilly and Company. The settings on record: ref data on file, Eli Lilly and Company; cited from earlier work.
Data set [2] can be described thus: Clinical drug interaction study (H8Y-MC-HBCF), plasma and urine pharmacokinetics in healthy subjects. The settings on record: for Vd/F: Vz/F; for Tmax: median (min–max); for CL renal: urine and plasma.
Experimental: For the active moiety, the LLQ was 50 ng/ml and the ULQ was 5000 ng/ml.
Actual sampling times were used in the analyses with the exception of predose times, which were set to 0 hour. Area under the curve (AUC) values were determined using log-linear trapezoid methods.
The fraction of the dose excreted (fe) was also determined. For the active moiety dose, the 0.64 correction factor was used as described previously. […] The parameters were log transformed before analysis. The least squares means (LSM) for each treatment and the 90% confidence intervals (CI) for the difference in means between test and reference treatment groups were estimated from the model and back transformed from the log scale to provide estimates of the geometric means and 90% CIs for the ratio of geometric means. The analysis of tmax was based on a nonparametric method. Medians and range for treatments and the P value computed for comparison of median values using Wilcoxon signed rank test are presented.
In data set [3] the target is T1, PEPT1 (Homo sapiens, UniProt P46059).
T1 sequence (P46059 1-708): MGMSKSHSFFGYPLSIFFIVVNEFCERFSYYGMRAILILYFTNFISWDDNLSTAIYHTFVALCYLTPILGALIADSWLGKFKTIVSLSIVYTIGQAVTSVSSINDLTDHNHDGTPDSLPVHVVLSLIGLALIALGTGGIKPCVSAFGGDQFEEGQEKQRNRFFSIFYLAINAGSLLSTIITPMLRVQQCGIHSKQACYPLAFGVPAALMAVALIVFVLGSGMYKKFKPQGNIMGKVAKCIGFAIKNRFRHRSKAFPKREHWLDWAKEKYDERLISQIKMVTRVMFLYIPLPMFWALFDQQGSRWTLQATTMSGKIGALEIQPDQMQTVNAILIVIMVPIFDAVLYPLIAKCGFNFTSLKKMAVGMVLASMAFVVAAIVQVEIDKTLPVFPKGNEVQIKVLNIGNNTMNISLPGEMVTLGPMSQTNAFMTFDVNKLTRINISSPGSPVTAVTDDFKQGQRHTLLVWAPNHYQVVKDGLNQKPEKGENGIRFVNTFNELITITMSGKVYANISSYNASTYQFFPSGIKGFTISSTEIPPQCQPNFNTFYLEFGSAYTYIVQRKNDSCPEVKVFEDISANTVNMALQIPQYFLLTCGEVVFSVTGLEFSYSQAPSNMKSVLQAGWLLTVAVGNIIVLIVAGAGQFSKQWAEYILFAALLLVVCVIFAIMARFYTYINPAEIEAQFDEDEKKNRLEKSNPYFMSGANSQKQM
The data set is described as follows: Proton- and time-dependent transport of prodrug and active moiety in PEPT1 transfected HeLa cells. The settings on record: 30 μM, pH 6.0 or 7.5, PEPT1 vs empty vector transfected HeLa cells. The data set is classed as in vitro ADME. More on the design: expressed in transfected cells; host or cells: HeLa cells (ATCC), transiently transfected with Fugene 6, pcDNA3.1 vector. The protocol:
The PEPT1 mediated [^14C]LY2140023 (30 μM) and [^14C]LY404039 (30 μM) uptake was measured in cells 24 hours post transfection. The time-dependent transport of LY2140023 and LY404039 was conducted using buffers prepared at either pH 6.0 or 7.5 as described above. The cells transfected with empty pcDNA3.1 vector were used to measure the passive diffusion of LY2140023 and LY404039. The cells were incubated for 1, 2.5, 5, 7.5, 10, and 15 minutes at room temperature and were washed, lysed, and contents quantified as described above.

Data set [4] can be described thus: Clinical study safety (adverse events) in healthy subjects. The data set is classed as in vivo, human. The settings on record: after 1000 mg of valacyclovir alone.
Data set [5] concerns the target PEPT1. More on the design: method as in Ganapathy et al. (1998). The settings on record: ref Ganapathy et al. (1998); read-out: Ki value (printed in column IC50 against Gly-Sar); cited from earlier work.
Data set [6] concerns the target T1, PEPT1. The data set is described as follows: Inhibition of PEPT1-mediated [14C]LY2140023 uptake in transfected HeLa cells. The settings on record: 10 μM [14C]LY2140023.
Experimental: Briefly, cells were seeded at a density of 65,000 cells/ml in 24-well plates. After achieving 50 to 80% confluency, cells were transfected with SLC15A1, gene for PEPT1 (accession number NM_005073) inserted in pcDNA3.1 or pcDNA3.1 empty vector (Invitrogen) using Fugene 6 (Roche, Indianapolis, IN) following the manufacturer’s protocol.
The solubility of compounds at these concentrations was checked by using a fiber-optic light source.
where [I] is an inhibitor concentration in micromoles. Top is the highest % activity in the absence of inhibitor, and S is the slope factor.
The mark [7] stands for this setting: LY2140023 80 mg + valacyclovir 1000 mg coadministered, geometric mean (CV%).
The mark [8] stands for this setting: LY2140023 + Valacyclovir vs LY2140023 Alone.
[9] abbreviates: human, plasma, oral, Cmax LS Geometric Mean, LY2140023 + Valacyclovir (Test).
Where [10] appears, read: human, plasma, oral, Cmax, LY2140023 80 mg + valacyclovir 1000 mg coadministered, geometric mean (CV%).
Setting [11] is: human, plasma, oral, LY2140023 80 mg + valacyclovir 1000 mg coadministered.

On to `N[C@@]1(C(=O)O)CS(=O)(=O)[C@H]2[C@H](C(=O)O)[C@H]21` [LY404039], for which, in data set [1], the passive permeability entry is reported as “approximately 1 × 10^−6 cm/s”. The CL/F is reported as 20.5 (24) L/hour in data set [2] (setting [7]) and 19.7 (16) L/hour in data set [2] (single 80-mg dose of LY2140023 alone, geometric mean (CV%)). For the same molecule, in data set [2] (setting [8]), the “AUC(0-∞) Ratio Test/Reference” value is 0.94. The “Cmax Ratio Test/Reference” value in data set [2] (setting [8]) is on record as 0.92. In data set [2] (after administration of the prodrug), the “active moiety present at the first sampling time” value is reported as 18 of 21 subjects. This molecule gave a half-life in data set [2] (human, plasma, oral, 80 mg) of 3.05 h. Besides, the area under the curve AUC(0-inf) is 2670 ng·h/mL in data set [2] (human, plasma, oral, 80 mg, AUC(0-∞) LS Geometric Mean, LY2140023 Alone (Reference)); 2600 ng·h/mL in data set [2] (human, plasma, oral, 80 mg, AUC(0-∞), single 80-mg dose of LY2140023 alone, geometric mean (CV%)); 2500 ng·h/mL in data set [2] (human, plasma, oral, AUC(0-∞) LS Geometric Mean, LY2140023 + Valacyclovir (Test)); 2490 ng·h/mL in data set [2] (human, plasma, oral, AUC(0-∞), LY2140023 80 mg + valacyclovir 1000 mg coadministered, geometric mean (CV%)). Moreover, the Cmax in data set [2] (human, plasma, oral, 80 mg, Cmax LS Geometric Mean, LY2140023 Alone (Reference)) worked out at 484 ng/mL; in data set [2] (human, plasma, oral, 80 mg, Cmax, single 80-mg dose of LY2140023 alone, geometric mean (CV%)) it was 477 ng/mL; in data set [2] (setting [9]), 447 ng/mL; in data set [2] (setting [10]), 444 ng/mL. Also, the Vd/F in data set [2] (human, plasma, oral, 80 mg, single 80-mg dose of LY2140023 alone, geometric mean (CV%)) worked out at 86.5 L; in data set [2] (human, plasma, oral, LY2140023 80 mg + valacyclovir 1000 mg coadministered, geometric mean (CV%)), 92.2 L. For the same molecule, the Tmax in data set [2] (human, plasma, oral, 80 mg, single 80-mg dose of LY2140023 alone) was 4 h; in data set [2] (setting [11]) it was 4 h. For the same molecule, the CL renal in data set [2] (human, oral, 80 mg) was 213 mL/min. Also, in data set [3], the PEPT1 substrate status entry is listed as “is not a PEPT1 substrate; also recorded: not transported by PEPT1”.
In the case of `CC(C)[C@H](N)C(=O)OCCOCn1cnc2c(=O)[nH]c(N)nc21` [Valacyclovir], the adverse events result in data set [4] is on record as “mild AE of urticaria; also recorded: one severe AE of headache”. Further, the inhibition constant Ki in data set [5] was 740 µM. The IC50 in data set [6] (IC50 against LY2140023, first of two separate experiments) came out at 410 ± 50 µM; in data set [6] (IC50 against LY2140023, second of two separate experiments), 500 ± 110 µM; in data set [6] (Mean IC50 against LY2140023, mean of two separate experiments), 460 µM. Further, in data set [2] (setting [7]), the “fe (fraction of the dose excreted in urine)” value is recorded as 0.00776 (25.4). For the same molecule, the area under the curve AUC(0-t) was 309 ng·h/mL in data set [2] (human, plasma, oral, 1000 mg, AUC(0-3) LS Geometric Mean, Valacyclovir Alone (Reference)); 311 ng·h/mL in data set [2] (human, plasma, oral, 1000 mg, AUC(0-3), single 1000-mg dose of valacyclovir alone, geometric mean (CV%), n = 22); 278 ng·h/mL in data set [2] (human, plasma, oral, AUC(0-3) LS Geometric Mean, Valacyclovir + LY2140023 (Test)); 270 ng·h/mL in data set [2] (human, plasma, oral, AUC(0-3), LY2140023 80 mg + valacyclovir 1000 mg coadministered, geometric mean (CV%)). For the same molecule, the Cmax in data set [2] (human, plasma, oral, 1000 mg, Cmax LS Geometric Mean, Valacyclovir Alone (Reference)) is 245 ng/mL; in data set [2] (human, plasma, oral, 1000 mg, Cmax, single 1000-mg dose of valacyclovir alone, geometric mean (CV%)), 245 ng/mL; in data set [2] (setting [9]) it was 258 ng/mL; in data set [2] (setting [10]), 255 ng/mL. For the same molecule, the Tmax in data set [2] (human, plasma, oral, 1000 mg, single 1000-mg dose of valacyclovir alone) is 2 h; in data set [2] (setting [11]), 2 h. Also, the CL renal in data set [2] (human, oral, 1000 mg) is 262 mL/min. Also, the fe in data set [2] (single 1000-mg dose of valacyclovir alone, geometric mean (CV%)) is 0.00703 (64.7).
